Like-named read-outs stand apart in the source and are kept apart here.
Key:
[1] = Sialic acid/prodrug single dose PO crossover pharmacokinetics study; type: in vivo, cynomolgus monkeys; conditions: for peak serum concentration (Cmax): serum sialic acid, mean n=3, single 100 mg/kg PO, fasted cynomolgus monkeys; for extent of the absorption: sialic acid API vs prodrug, single 100 mg/kg PO, cynomolgus monkeys
From the text: Example 4. Sialic Acid/Prodrug Single Dose PO Crossover Pharmacokinetics Study in Cynomolgus Monkeys
A single oral dose crossover pharmacokinetic study of sialic acid (API) and prodrug (Compound 1—a valine ester of sialic acid as described above) was run in fasted cynomolgus monkeys (n=3). For this study, it was essential that the GI tract of the in vivo model have some similarities to human metabolism in order for the Pep Ti transporter system to be present, thus monkeys were chosen since they carry the same transporter in the gut as humans.
The 100 mg/kg dose level chosen was based on what is known for dosing of sialic acid which has passed complete toxicological evaluation and is safe up to 2,000 mg/kg NOAEL in dogs and rats. On Day 1, three female cynomolgus monkeys were dosed with 100 mg/kg sialic acid (API) and on Day 8 the same three cynomolgus monkeys were dosed with 100 mg/kg of the prodrug. Serum was collected at the following timepoints: predose, then 5 min, 15 min, 30 min, 1 hr, 2 hrs, 4 hrs, 8 hrs, 12 hrs and 24 hrs postdose. Urine samples were collected predose overnight, then at intervals 0-4 hrs, 4-8 hrs, 8-12 hrs and 12-24 hrs post dose. The data in FIG. 2A show the mean absorption values (n=3) of serum sialic acid on Days 1 and 8. The prodrug peak serum concentration is earlier (1 hr) than sialic acid API (2 hrs). […] The pharmacokinetic data in FIGS. 2B and 2C show group averages of sialic acid concentrations on Days 1 and 8.

[2] = dog, in vivo; cited from earlier work
[3] = rat, in vivo; cited from earlier work

Compound | peak serum concentration (Cmax) [1] [ng/mL] | extent of the absorption [1] | NOAEL [2] | NOAEL [3]
CC(=O)N[C@H]1[C@H]([C@H](O)[C@H](O)CO)OC(O)(C(=O)O)C[C@@H]1O (stereo partly drawn) [sialic acid, N-acetylneuraminic acid] | 1623 | similar | 2,000 mg/kg | 2,000 mg/kg
CC(=O)NC1C(O)CC(O)(C(=O)O)OC1C(O)C(O)COC(=O)C(N)C(C)C (stereo not drawn) [Compound 1, 5-Acetylamino-6-[3-(2-amino-3-methyl-butyryloxy)-1,2-dihydroxy-propyl]-2,4-dihydroxy-tetrahydro-pyran-2-carboxylic acid] | 857 | similar |  | 

Reference: US10889607B2, “Sialic acid analogs” (Ultragenyx Pharmaceutical Inc., priority 2011, dated 2021)
